# Source: PubChem BioAssay (NCI)
#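 Cells were grown in 96-well plates and exposed to each compound for 48 hours at five concentrations; endpoints were interpolated linearly between bracketing concentrations, or set to the highest concentration if not reached. The concentration for 50% growth inhibition is given as GI50. TGI denotes the concentration required for complete inhibition of growth.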
# Experiments:
# Assay in all cases: NCI tumour cell line growth inhibition, 48 h
# [1] = tested on: UO-31 renal
# [2] = tested on: COLO 205 colon
# [3] = tested on: SF-268 CNS
# [4] = tested on: U251 CNS
# [5] = tested on: A549 NSCLC
# [6] = tested on: EKVX NSCLC
# [7] = tested on: M14 melanoma
# [8] = tested on: HL-60(TB) leukemia
# [9] = tested on: SW-620 colon
# [10] = tested on: RXF 393 renal
SMILES,TGI [1],TGI [2],TGI [3],TGI [4],TGI [5],TGI [6],TGI [7],TGI [8],TGI [9],GI50 [1],GI50 [2],GI50 [3],GI50 [4],GI50 [5],GI50 [10],TGI [10],GI50 [6],GI50 [7],GI50 [9],GI50 [8]
COC1CC2C=CC3C4OC2(/C(C)=C/C(C)C(C(C)O)OC1=O)C3C(O)C(C)C4OC(=O)c1ccc[nH]1 (centres undefined),> 100 µM,> 100 µM,> 100 µM,> 100 µM,> 100 µM,> 100 µM,> 100 µM,63.3 µM,> 100 µM,,,,,,,,,,,
COc1cc2c(=O)n(CCCn3ccnc3)c3c4cc5c(cc4ccc3c2cc1OC)OCO5,> 100 µM,> 100 µM,14.9 µM,15.8 µM,> 100 µM,> 100 µM,> 100 µM,,> 100 µM,0.262 µM,0.291 µM,0.448 µM,0.393 µM,1.96 µM,0.316 µM,14.3 µM,9.72 µM,0.698 µM,0.49 µM,
Cc1ccc2c(N/N=C\c3ccco3)cc(C)nc2n1,5.24 µM,3.75 µM,20.5 µM,7.06 µM,18.5 µM,,4.04 µM,4.07 µM,11.6 µM,2 µM,1.88 µM,6.15 µM,1.94 µM,4.37 µM,4.53 µM,17.1 µM,,2.05 µM,3.01 µM,1.99 µM
Cc1cccc2c1O/C(=C\c1ncc([N+](=O)[O-])n1C)C2=O,0.708 µM,1.42 µM,0.942 µM,1.64 µM,2.26 µM,,0.5 µM,1.13 µM,0.537 µM,0.19 µM,0.254 µM,0.215 µM,0.371 µM,0.382 µM,,,,0.169 µM,0.0888 µM,0.216 µM
CN(C)Cc1cccc(CN(C)C)[c]1[Sn]([Br])([c]1ccccc1)[c]1ccccc1,26.8 µM,17.9 µM,17.5 µM,15.5 µM,60.1 µM,54.1 µM,30.6 µM,3.93 µM,29.7 µM,13.1 µM,4.37 µM,3.77 µM,3.71 µM,17 µM,,,15.2 µM,15.9 µM,13.5 µM,1.76 µM
N#CC(C(=O)CCC(=O)Nc1ccc(Cl)cc1)c1ccccc1Cl (centres undefined),> 100 µM,> 100 µM,> 100 µM,> 100 µM,> 100 µM,> 100 µM,> 100 µM,> 100 µM,> 100 µM,,,,,,,,,,,
CCN(CC)C(=O)CNC(=O)OC(C)(C)C,> 100 µM,,> 100 µM,> 100 µM,> 100 µM,> 100 µM,> 100 µM,> 100 µM,> 100 µM,,,,,,,> 100 µM,,,,
CC(C(=O)c1ccccc1)C1(O)C(=O)Nc2ccccc21 (centres undefined),> 100 µM,> 100 µM,> 100 µM,> 100 µM,> 100 µM,> 100 µM,> 100 µM,,> 100 µM,,,,,,,> 100 µM,,,,
C[Si](C)(C)/C=C\CCCN1C(=O)CCC1=O,> 100 µM,> 100 µM,> 100 µM,> 100 µM,> 100 µM,> 100 µM,> 100 µM,> 100 µM,> 100 µM,,,,,,,,,,,
COc1ccc(-c2csc(NC(=O)N3CCN(c4cc5c(cc4F)c(=O)c(C(=O)O)cn5C4CC4)CC3)n2)cc1,> 100 µM,,> 100 µM,16.8 µM,> 100 µM,> 100 µM,> 100 µM,,> 100 µM,1.62 µM,,1.23 µM,0.66 µM,3.43 µM,3.03 µM,23.4 µM,3.11 µM,2.31 µM,5.04 µM,
COc1ccc(C(=O)C(Br)C(Br)C(=O)O)cc1 (centres undefined),,46.8 µM,> 100 µM,> 100 µM,> 100 µM,> 100 µM,> 100 µM,,52.3 µM,,,,,,,56.4 µM,,,,
COc1ccc(-c2nc(N)c3ncn(C4OC(CO)C(O)C4O)c3n2)cc1 (centres undefined),,> 100 µM,> 100 µM,> 100 µM,> 100 µM,> 100 µM,> 100 µM,> 100 µM,> 100 µM,,,,,,,> 100 µM,,,,
NNC(=O)CCC(=O)Nc1ccc(Cl)cc1Cl,> 100 µM,> 100 µM,> 100 µM,> 100 µM,> 100 µM,,> 100 µM,> 100 µM,> 100 µM,,,,,,,> 100 µM,,,,
COc1cc2ccnc3c2c(c1OC)CC1CC(O)C(OC)CC31 (centres undefined),> 100 µM,> 100 µM,,> 100 µM,> 100 µM,88.6 µM,> 100 µM,> 100 µM,> 100 µM,,,,,,,,,,,
NC(=O)c1cc(Cl)ccc1NC(=O)c1ccccc1-c1ccccc1,> 100 µM,5.52 µM,> 100 µM,> 100 µM,> 100 µM,,3.96 µM,20.4 µM,> 100 µM,1.97 µM,0.923 µM,5.38 µM,0.65 µM,1.16 µM,0.806 µM,5.52 µM,,0.427 µM,0.412 µM,0.284 µM
CC([C@H]1CCC2C3CCC4CC5(CC[C@]4(C)C3CC[C@@]21C)c1ccccc1C(=O)N5C)N(C)C (some centres undefined),50.2 µM,> 100 µM,> 100 µM,> 100 µM,> 100 µM,,38.7 µM,46.3 µM,> 100 µM,,,,,,,> 100 µM,,,,
CC1Cc2c(N)nc(N3CCOCC3)nc2NC1=O (centres undefined),> 100 µM,> 100 µM,,> 100 µM,> 100 µM,> 100 µM,> 100 µM,> 100 µM,> 100 µM,,,,,,,> 100 µM,,,,
O=C1C(Cl)=C(Nc2cccc(O)c2)C(=O)N1c1cccc(Cl)c1,> 100 µM,> 100 µM,> 100 µM,> 100 µM,> 100 µM,> 100 µM,> 100 µM,,> 100 µM,75.8 µM,56.5 µM,28.8 µM,57.7 µM,81.1 µM,25.5 µM,> 100 µM,> 100 µM,28.8 µM,39 µM,
